These results are taken from paper PMC6315728, “Fatty Acid and Related Potassium Kv2 Channel Blockers: Toxicity and Physiological Actions on Mosquitoes” (Insects, 2018).

This experiment concerns the target T1, AgKv2.1 (voltage-gated potassium channel Kv2.1) (Anopheles gambiae, UniProt Q5TT67).
T1 construct: gene 1274312
T1 sequence (Q5TT67 1-1014): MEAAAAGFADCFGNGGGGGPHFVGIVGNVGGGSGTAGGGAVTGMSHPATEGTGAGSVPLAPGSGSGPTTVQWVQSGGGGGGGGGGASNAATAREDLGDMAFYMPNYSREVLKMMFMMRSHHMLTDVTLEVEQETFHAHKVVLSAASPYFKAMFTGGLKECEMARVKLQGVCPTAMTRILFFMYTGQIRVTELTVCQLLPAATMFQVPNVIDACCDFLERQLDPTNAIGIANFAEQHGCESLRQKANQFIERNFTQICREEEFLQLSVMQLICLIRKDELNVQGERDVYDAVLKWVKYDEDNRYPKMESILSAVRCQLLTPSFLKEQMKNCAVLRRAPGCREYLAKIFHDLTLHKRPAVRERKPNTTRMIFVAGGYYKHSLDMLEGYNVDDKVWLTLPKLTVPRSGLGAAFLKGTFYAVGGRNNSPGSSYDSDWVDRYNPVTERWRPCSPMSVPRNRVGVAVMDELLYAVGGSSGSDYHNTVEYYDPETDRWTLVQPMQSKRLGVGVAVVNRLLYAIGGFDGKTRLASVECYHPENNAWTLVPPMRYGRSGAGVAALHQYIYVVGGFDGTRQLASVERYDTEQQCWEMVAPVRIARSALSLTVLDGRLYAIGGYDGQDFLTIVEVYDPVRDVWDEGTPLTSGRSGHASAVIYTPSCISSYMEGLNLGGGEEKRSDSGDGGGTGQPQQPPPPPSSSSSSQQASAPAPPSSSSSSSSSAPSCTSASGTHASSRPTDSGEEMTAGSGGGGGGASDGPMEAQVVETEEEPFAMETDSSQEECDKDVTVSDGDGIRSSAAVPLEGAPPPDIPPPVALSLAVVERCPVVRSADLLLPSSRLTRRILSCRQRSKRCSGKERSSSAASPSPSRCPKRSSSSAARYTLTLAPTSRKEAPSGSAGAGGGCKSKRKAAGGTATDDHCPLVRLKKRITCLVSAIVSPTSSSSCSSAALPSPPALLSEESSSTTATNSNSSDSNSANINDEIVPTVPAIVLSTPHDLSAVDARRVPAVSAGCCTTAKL
Briefly: whole-cell patch-clamp of HEK-293 cells expressing AgKv2.[…], current inhibition at +[…] mV. Format: cell-based. In general terms: The patch-clamp technique gives a direct electrical read-out from membranes.

Like-named read-outs stand apart in the source and are kept apart here.

As for `CN(C)c1cccc2c(S(=O)(=O)NCCCCCCCCCCC(=O)O)cccc12` [DAUDA], where the note is “read-out: Patch Clamp / IC50 /”, the IC50 came to 1180 nM.
On the same count and under the same terms, in the case of `CCCCCC(O)CCCC(=O)O` (stereo not drawn) [5-HDC] it was 30000 nM.
The compound `CCCCCCCCCC(=O)O` [decanoic acid] displayed an IC50 of 610 nM.
